From US20250326748A1, “COMPOUNDS AND METHODS FOR MODULATING SPLICING” (REMIX THERAPEUTICS INC., priority 2022, published 2025)
Where a name gives a salt, the structure may show the parent alone. Read-outs that look alike come from different tables or passages of the source.

How the values were obtained:
SMN2 mRNA = test: Splicing RT-qPCR panel, SMN2 canonical junction (CJ) mRNA; assay type: cell-based, human; conditions: read-out: SMN2 CJ (decrease in CJ mRNA levels, IC50)
In short: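 A673 cells (DMEM, 10% FBS) or K562 cells (IMDM, 10% FBS) treated 24 h at 37 °C with an 11-point 3-fold dilution, top 10 uM, DMSO ≤0.25%. Canonical-junction mRNA quantified in lysates by RT-qPCR, normalised to GAPDH, GUSB or PPIA and to DMSO (2^−ΔΔCt), then converted to % response.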

HiBiT-tagged MYB protein = test: HiBiT protein abundance assay, MYB (K562 HiBiT knock-in); assay type: cell-based, human; conditions: HiBiT knock-in cells, 24 hours
In short: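 Endogenously HiBiT-tagged K562 knock-in lines treated 24 h at 37 °C with 10-point 3-fold dilutions (top 10 μM final, DMSO ≤0.25%) in IMDM+1% FBS. Lytic Nano-Glo luminescence normalized to DMSO and unmodified K562 controls; four-parameter fit gives 50%-abundance concentration (IC50).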

SMILES | IC50 (SMN2 mRNA; Homo sapiens) [nM] | IC50 (HiBiT-tagged MYB protein) [nM] | IC50 (SMN2 mRNA) [nM]
COc1nc(-c2cc3cn(C)nc3c(F)c2O)nc2ncc(N3CCC(N(C)C)CC3)cc12 [Compound 219, 5-{6-[4-(dimethylamino)piperidin-1-yl]-4-methoxypyrido[2,3-d]pyrimidin-2-yl}-7-fluoro-2-methylindazol-6-ol] | < 100 | < 100 | –
Cc1c(O)c(-c2cc(-c3nnc[nH]3)c3cc(N4C[C@@H](C)N[C@@H](C)C4)cnc3n2)cc2cn(C)nc12 [Compound 261, 5-{6-[(3R,5S)-3,5-dimethylpiperazin-1-yl]-4-(4H-1,2,4-triazol-3-yl)-1,8-naphthyridin-2-yl}-2,7-dimethylindazol-6-ol] | < 100 | > 10000 | –
C[C@@H]1CN(c2cnc3nc(-c4cc5cn(C)nc5c(F)c4O)ccc3c2)C[C@H](C)N1 [Compound 206] | < 100 | < 100 | –
Cn1cc2cc(-c3cnc4nc(N5CCNCC5)cc(Cl)c4c3)cc(F)c2n1 [Compound 101, 4-chloro-6-(7-fluoro-2-methyl-2H-indazol-5-yl)-2-(piperazin-1-yl)-1,8-naphthyridine] | < 100 | < 100 | –
Cn1cc2cc(-c3cc(Cl)c4cc(N5CCN6CCCC6C5)cnc4n3)cc(F)c2n1 (stereo not shown) [Compound 216, 4-chloro-2-(7-fluoro-2-methylindazol-5-yl)-6-{hexahydro-1H-pyrrolo[1,2-a]pyrazin-2-yl}-1,8-naphthyridine trifluoroacetic acid] | < 100 | 100 to 1000 | –
Cc1cn2nc(-c3ccc4cc(NC5CCNCC5)cnc4n3)cc(C)c2n1 [Compound 210, 7-{2,8-dimethylimidazo[1,2-b]pyridazin-6-yl}-N-(piperidin-4-yl)-1,8-naphthyridin-3-amine; trifluoroacetic acid] | 100 to 1000 | 1000 to 10000 | –
Cc1c(O)c(-c2cc(Cl)c3cc(N(C)C4CCNC4)cnc3n2)cc2cn(C)nc12 (stereo not shown) [Compound 204, 5-[4-chloro-6-(367pyrrolidine-3-ylamino)-1,8-naphthyridin-2-yl]-2,7-dimethylindazol-6-ol] | < 100 | 100 to 1000 | –
C[C@H]1CN(c2cnc3nc(-c4cc5cn(C)nc5cc4O)cc(Cl)c3c2)C[C@H](C)N1 [Compound 242] | < 100 | < 100 | –
COc1nc(-c2cc3cn(C)nc3c(C)c2O)nc2ncc(N3CCC(N(C)C)CC3)cc12 [Compound 163, 5-{6-[4-(dimethylamino)piperidin-1-yl]-4-methoxypyrido[2,3-d]pyrimidin-2-yl}-2,7-dimethylindazol-6-ol] | < 100 | 100 to 1000 | –
Cc1c(O)c(-c2ncc3cc(N4CC[C@@H](N)C4)cnc3n2)cc2cn(C)nc12 [Compound 159, (R)-5-(6-(3-aminopyrrolidin-1-yl)pyrido[2,3-d]pyrimidin-2-yl)-2,7-dimethyl-2H-indazol-6-ol 2,2,2-trifluoroacetate] | < 100 | < 100 | –
C[C@@H]1CN(c2cnc3nc(-c4cc5cn(C)nc5cc4O)cc(Cl)c3c2)C[C@@H](C)N1 [Compound 243, 5-{4-chloro-6-[(3R,5R)-3,5-dimethylpiperazin-1-yl]-1,8-naphthyridin-2-yl}-2-methylindazol-6-ol hydrochloride] | < 100 | 100 to 1000 | –
Cc1nc2c(C)c(O)c(-c3cnc4cc(N5CCC(NC6CC6)C5)ccc4n3)cc2o1 (stereo not shown) [Compound 182, 6-[6-[3-(cyclopropylamino)pyrrolidin-1-yl]quinoxalin-2-yl]-2,4-dimethyl-1,3-benzoxazol-5-ol] | < 100 | < 100 | –
COc1nc(-c2cc3cn(C)nc3c(C)c2O)nc2ncc(N3CCNCC3)cc12 [Compound 162, 5-[4-methoxy-6-(piperazin-1-yl)pyrido[2,3-d]pyrimidin-2-yl]-2,7-dimethylindazol-6-ol] | < 100 | < 100 | –
Cn1cc2cc(-c3cc(Cl)c4cc(N5CCNCC5)cnc4n3)cc(F)c2n1 [Compound 103] | < 100 | < 100 | –
Cn1cc2cc(-c3cnc4cc(N5CC[C@H](NC6CC6)C5)ccc4n3)c(O)c(F)c2n1 [Compound 176, 5-[6-[(3S)-3-(cyclopropylamino)318quinoxaline-1-yl]318quinoxaline-2-yl]-7-fluoro-2-methyl-indazol-6-ol] | < 100 | < 100 | –
Cn1cc2cc(-c3cnc4nc(N5CCC(NC6CC6)C5)ccc4n3)c(O)c(F)c2n1 (stereo not shown) [Compound 178, 5-[6-[3-(cyclopropylamino)pyrrolidin-1-yl]pyrido[2,3-b]pyrazin-2-yl]-7-fluoro-2-methyl-indazol-6-ol] | < 100 | 100 to 1000 | –
CNC1CCN(c2cnc3nc(-c4cc5cn(C)nc5c(C)c4O)cc(Cl)c3n2)C1 (stereo not shown) [Compound 193, 5-{8-chloro-2-[3-(methylamino)355pyrrolidine-1-yl]pyrido[2,3-b]pyrazin-6-yl}-2,7-dimethylindazol-6-ol] | < 100 | < 100 | –
Cc1c(O)c(-c2ccc3nc(N4CCC(N(C)C)CC4)cnc3n2)cc2cn(C)nc12 [Compound 198] | < 100 | 100 to 1000 | –
CN[C@@H]1CCN(c2cnc3nc(-c4cc(F)c5nc(C)cn5c4)ncc3c2)C1 [Compound 202, (3R)-1-(2-{8-fluoro-2-methylimidazo[1,2-a]pyridin-6-yl}pyrido[2,3-d]pyrimidin-6-yl)-N-methylpyrrolidin-3-amine] | < 100 | < 100 | –
CNC1CCN(c2cnc3nc(-c4cc5cn(C)nc5c(C)c4O)ccc3n2)C1 (stereo not shown) [Compound 192, 2,7-dimethyl-5-{2-[3-(methylamino)337pyrrolidine-1-yl]pyrido[2,3-b]pyrazin-6-yl}indazol-6-ol] | < 100 | 100 to 1000 | –
CN[C@H]1CCN(c2cnc3nc(-c4cc5cn(C)nc5c(C)c4O)nc(OC)c3c2)C1 [Compound 212, 5-{4-methoxy-6-[(3S)-3-(methylamino)pyrrolidin-1-yl]pyrido[2,3-d]pyrimidin-2-yl}-2,7-dimethylindazol-6-ol] | < 100 | < 100 | –
Cn1cc2cc(-c3ccc4cc(N5CC[C@H](NC(C)(C)C)C5)cnc4n3)c(O)cc2n1 (single isomer, unassigned) [Compound 200] | < 100 | 100 to 1000 | –
Cc1c(O)c(-c2cc(Cl)c3cc(N4C[C@@H](C)N[C@@H](C)C4)cnc3n2)cc2cn(C)nc12 [Compound 207, 5-{4-chloro-6-[(3R,5S)-3,5-dimethylpiperazin-1-yl]-1,8-naphthyridin-2-yl}-2,7-dimethylindazol-6-ol] | – | < 100 | < 100
